Molecular target: T1, human FXR (Homo sapiens, UniProt Q96RI1)
T1 construct: expressed in transfected cells; host or cells: HEK293 cells stably carrying a 5xGal4 response element-luciferase reporter, transiently transfected with pcDNA3.1-Gal4-FXR
T1 sequence (Q96RI1 262-486 limits assumed): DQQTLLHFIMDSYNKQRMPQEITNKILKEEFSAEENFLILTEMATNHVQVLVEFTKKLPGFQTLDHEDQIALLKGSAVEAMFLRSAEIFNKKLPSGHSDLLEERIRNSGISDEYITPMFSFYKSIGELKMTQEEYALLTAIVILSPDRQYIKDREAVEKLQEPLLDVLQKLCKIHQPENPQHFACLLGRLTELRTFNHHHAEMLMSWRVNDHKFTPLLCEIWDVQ
Assay: transient human FXR/Gal4-luciferase reporter assay
Type: cell-based
Details: Gal4-hFXR fusion construct, luciferase reporter in HEK293 cells; overnight incubation; response as percentage of 8 μM GW-4064 control
Outline: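 HEK293 cells stably carrying a 5×Gal4-response-element firefly luciferase reporter were transiently transfected with a Gal4 DBD-human FXR LBD fusion, then treated overnight with compounds at 37 °C. Steady-Glo luminescence, minus DMSO background, was expressed as percent of the response to 8 μM GW-4064.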

SMILES	EC50 [nM]
CC(C)(C)c1nc(C23CCC(CN(C(=O)C45CC(F)(C4)C5)c4cccc(Nc5cnc(C6CC6)nc5)c4)(CC2)CC3)no1 [Example 103, N-((4-(5-(tert-butyl)-1,2,4-oxadiazol-3-yl)bicyclo[2.2.2]octan-1-yl)methyl)-N-(3-((2-cyclopropylpyrimidin-5-yl)amino)phenyl)-3-fluorobicyclo[1.1.1]pentane-1-carboxamide]	187
CS(=O)(=O)c1cccc(N(CC23CCC(c4nc(C5CC5)no4)(CC2)CC3)C(=O)[C@H]2C[C@](O)(C(F)(F)F)C2)c1 [Example 90, (1S,3S)—N-((4-(3-cyclopropyl-1,2,4-oxadiazol-5-yl)bicyclo[2.2.2]octan-1-yl)methyl)-3-hydroxy-N-(3-(methylsulfonyl)phenyl)-3-(trifluoromethyl)cyclobutane-1-carboxamide]	4000
CC(C)(C)c1nc(C23CCC(CN(C(=O)C45CC(F)(C4)C5)c4cccc(Oc5ncc(OC(F)F)cn5)c4)(CC2)CC3)no1 [Example 118, N-((4-(5-(tert-butyl)-1,2,4-oxadiazol-3-yl)bicyclo[2.2.2]octan-1-yl)methyl)-N-(3-((5-(difluoromethoxy)pyrimidin-2-yl)oxy)phenyl)-3-fluorobicyclo[1.1.1]pentane-1-carboxamide]	361
COc1cccc(N(CC23CCC(c4noc(C(C)(F)F)n4)(CC2)CC3)C(=O)C23CC(F)(C2)C3)c1 [Example 129, N-((4-(5-(1,1-difluoroethyl)-1,2,4-oxadiazol-3-yl)bicyclo[2.2.2]octan-1-yl)methyl)-3-fluoro-N-(3-methoxyphenyl)bicyclo[1.1.1]pentane-1-carboxamide]	73
CC(F)(F)c1nc(C23CCC(CN(C(=O)C45CC(F)(C4)C5)c4cccc(C(=O)O)c4)(CC2)CC3)no1 [Example 120, 3-(N-((4-(5-(1,1-difluoroethyl)-1,2,4-oxadiazol-3-yl)bicyclo[2.2.2]octan-1-yl)methyl)-3-fluorobicyclo[1.1.1]pentane-1-carboxamido)benzoic acid]	4000
CC(C)(C)c1noc(C23CCC(CN(c4cccc(Br)c4)C(=O)[C@H]4C[C@](O)(C(F)(F)F)C4)(CC2)CC3)n1 [Example 36, (1S,3S)—N-(3-bromophenyl)-N-((4-(3-(tert-butyl)-1,2,4-oxadiazol-5-yl)bicyclo[2.2.2]octan-1-yl)methyl)-3-hydroxy-3-(trifluoromethyl)cyclobutane-1-carboxamide]	135
CC(C)(C)c1noc(C23CCC(CN(c4cccc(Br)c4)C(=O)[C@H]4C[C@](O)(C(F)(F)F)C4)(CC2)C3)n1 [Example 133, (1s, 3s)-N-(3-bromophenyl)-N-((4-(3-(tert-butyl)-1,2,4-oxadiazol-5-yl)bicyclo[2.2.1]heptan-1-yl)methyl)-3-hydroxy-3-(trifluoromethyl) cyclobutane-1-carboxamide]	4000
CCNC(=O)c1cccc(N(CC23CCC(c4noc(C(C)(F)F)n4)(CC2)CC3)C(=O)C23CC(F)(C2)C3)c1 [Example 28, N-((4-(5-(1,1-difluoroethyl)-1,2,4-oxadiazol-3-yl)bicyclo[2.2.2]octan-1-yl)methyl)-N-(3-(ethylcarbamoyl)phenyl)-3-fluorobicyclo[1.1.1]pentane-1-carboxamide]	210
N#CC1(c2ccc(Nc3cccc(N(CC45CCC(c6noc(C7(F)CC7)n6)(CC4)CC5)C(=O)[C@H]4C[C@](O)(C(F)(F)F)C4)c3)cc2)CC1 [Example 91, (1S,3S)—N-(3-((4-(1-cyanocyclopropyl)phenyl)amino)phenyl)-N-((4-(5-(1-fluorocyclopropyl)-1,2,4-oxadiazol-3-yl)bicyclo[2.2.2]octan-1-yl)methyl)-3-hydroxy-3-(trifluoromethyl)cyclobutane-1-carboxamide]	2190
CC(C)(C)c1noc(C23CCC(CN(C(=O)C45CC(F)(C4)C5)c4cccc(Br)c4)(CC2)C3)n1 [Example 132, N-(3-bromophenyl)-N-((4-(3-(tert-butyl)-1,2,4-oxadiazol-5-yl)bicyclo[2.2.1]heptan-1-yl)methyl)-3-fluorobicyclo[1.1.1]pentane-1-carboxamide]	498
CC(C)(CO)CNC(=O)N(CC12CCC(c3noc(C(C)(C)F)n3)(CC1)CC2)c1cccc(C#N)c1 [Example 97, 1-(3-cyanophenyl)-1-((4-(5-(2-fluoropropan-2-yl)-1,2,4-oxadiazol-3-yl)bicyclo[2.2.2]octan-1-yl)methyl)-3-(3-hydroxy-2,2-dimethylpropyl)urea]	1000
COc1cccc(N(CC23CCC(c4nc(C5CC5)no4)(CC2)CC3)C(=O)C2CCOCC2)c1 [Example 60, N-((4-(3-cyclopropyl-1,2,4-oxadiazol-5-yl)bicyclo[2.2.2]octan-1-yl)methyl)-N-(3-methoxyphenyl)tetrahydro-2H-pyran-4-carboxamide]	902
CC(C)(C)c1noc(C23CCC(CN(C(=O)C4CCC(F)(F)CC4)c4cccc(C#N)c4)(CC2)CC3)n1 [Example 42, N-((4-(3-(tert-butyl)-1,2,4-oxadiazol-5-yl)bicyclo[2.2.2]octan-1-yl)methyl)-N-(3-cyanophenyl)-4,4-difluorocyclohexane-1-carboxamide]	1250
N#Cc1cc(F)cc(N(CC23CCC(c4nc(C5CC5)no4)(CC2)CC3)C(=O)C2CC(F)(F)C2)c1 [Example 64, N-(3-cyano-5-fluorophenyl)-N-((4-(3-cyclopropyl-1,2,4-oxadiazol-5-yl)bicyclo[2.2.2]octan-1-yl)methyl)-3,3-difluorocyclobutane-1-carboxamide]	528
CCOc1ccc(Nc2cccc(N(CC34CCC(c5nc(C(C)(C)C)no5)(CC3)CC4)C(=O)C34CC(F)(C3)C4)c2)cc1 [Example 83, N-((4-(3-(tert-butyl)-1,2,4-oxadiazol-5-yl)bicyclo[2.2.2]octan-1-yl)methyl)-N-(3-((4-ethoxyphenyl)amino)phenyl)-3-fluorobicyclo[1.1.1]pentane-1-carboxamide]	1130
CCOc1cccc(N(CC23CCC(c4nc(C5CC5)no4)(CC2)CC3)C(=O)C23CC(F)(C2)C3)c1 [Example 52, N-((4-(3-cyclopropyl-1,2,4-oxadiazol-5-yl)bicyclo[2.2.2]octan-1-yl)methyl)-N-(3-ethoxyphenyl)-3-fluorobicyclo[1.1.1]pentane-1-carboxamide]	102
CC(N(C(=O)C12CC(F)(C1)C2)c1cccc(C#N)c1)C12CCC(c3nc(C4CC4)no3)(CC1)CC2 (stereo not shown) [Example 70, N-(3-cyanophenyl)-N-(1-(4-(3-cyclopropyl-1,2,4-oxadiazol-5-yl)bicyclo[2.2.2]octan-1-yl)ethyl)-3-fluorobicyclo[1.1.1]pentane-1-carboxamide]	2000
CC(C)(CO)CNC(=O)N(CC12CCC(c3noc(C(C)(F)F)n3)(CC1)CC2)c1cccc(C#N)c1 [Example 100, 1-(3-cyanophenyl)-1-((4-(5-(1,1-difluoroethyl)-1,2,4-oxadiazol-3-yl)bicyclo[2.2.2]octan-1-yl)methyl)-3-(3-hydroxy-2,2-dimethylpropyl)urea]	1480
CC(C)(F)c1nc(C23CCC(CN(C(=O)N[C@H]4CC[C@](C)(O)CC4)c4cccc(C#N)c4)(CC2)CC3)no1 [Example 95, 1-(3-cyanophenyl)-1-((4-(5-(2-fluoropropan-2-yl)-1,2,4-oxadiazol-3-yl)bicyclo[2.2.2]octan-1-yl)methyl)-3-((1R,4R)-4-hydroxy-4-methylcyclohexyl)urea]	181

— patent US12319676B2, “Substituted amide compounds useful as farnesoid X receptor modulators” (BRISTOL-MYERS SQUIBB COMPANY, priority 2019, dated 2025)
